Activity calls are given as the source filed them. The rule behind the calls is not given here. Numbered stars: 1 amine (or outer) side, 2 acyl side, 3 side chain; on linkers, the order of the positions; unused ones are H or OH. Square brackets hold non-standard residues; d marks the D form. Peptide text beside a SMILES is read from it. * marks the point of attachment. Ahppa(3S,4S) = O=C(C[C@H](O)[C@H](Cc1ccccc1)N[*:1])[*:2]; dNMeF = CN[C@H](Cc1ccccc1)C(=O)O; NMeQ = CN[C@@H](CCC(N)=O)C(=O)O; Cbz = O=C(OCc1ccccc1)*; Lac = C[C@H](O)C(=O)O
Assays:
Beta-secretase 1 [1] = target: T1, Beta-secretase 1 (Homo sapiens, UniProt P56817); assay: Inhibition of BACE1 (unknown origin) at 10 uM after 90 mins by fluorescence assay
Beta-secretase 1 [2] = target: T1, Beta-secretase 1; assay: Inhibition of BACE1 (unknown origin) after 90 mins by fluorescence assay

T1 sequence (P56817 whole entry): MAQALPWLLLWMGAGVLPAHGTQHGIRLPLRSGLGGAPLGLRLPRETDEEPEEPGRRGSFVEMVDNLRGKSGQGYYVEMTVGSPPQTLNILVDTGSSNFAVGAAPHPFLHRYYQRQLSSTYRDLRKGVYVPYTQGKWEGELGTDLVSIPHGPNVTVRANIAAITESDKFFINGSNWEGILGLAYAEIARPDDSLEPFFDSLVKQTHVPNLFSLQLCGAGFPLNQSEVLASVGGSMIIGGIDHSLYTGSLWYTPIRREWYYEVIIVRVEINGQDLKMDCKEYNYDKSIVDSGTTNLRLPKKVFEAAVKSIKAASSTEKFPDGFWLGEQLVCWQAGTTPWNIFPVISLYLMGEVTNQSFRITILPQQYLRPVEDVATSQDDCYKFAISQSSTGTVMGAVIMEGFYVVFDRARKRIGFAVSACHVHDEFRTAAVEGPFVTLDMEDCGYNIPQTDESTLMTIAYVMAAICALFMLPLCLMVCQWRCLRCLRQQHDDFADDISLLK

Row | SMILES | inhibition (Beta-secretase 1 [1]) | IC50 (Beta-secretase 1 [2]; read-out: IC50) [µM] | IC50 (Beta-secretase 1 [2])
1 | COC(=O)[C@H](CC(C)C)NC(=O)C[C@H](O)[C@H](Cc1ccccc1)NC(=O)[C@H](CCC(N)=O)N(C)C(=O)[C@@H](NC(=O)OCc1ccccc1)C(C)C | 75% | 4.46 | 
2 | COC(=O)[C@@H](Cc1ccccc1)N(C)C(=O)[C@H](C)NC(=O)[C@H](CC(C)C)NC(=O)C[C@H](O)[C@H](Cc1ccccc1)NC(=O)[C@H](CCC(N)=O)N(C)C(=O)[C@@H](NC(=O)OCc1ccccc1)C(C)C | 97% | 0.87 | 
3 | COC(=O)C[C@H](O)[C@H](Cc1ccccc1)NC(=O)[C@H](CCC(N)=O)N(C)C(=O)[C@@H](NC(=O)OCc1ccccc1)C(C)C | 22.1% | > 10 | 
4 | CC(C)C[C@H](NC(=O)C[C@H](O)[C@H](Cc1ccccc1)NC(=O)[C@@H](N)Cc1cc2ccccc2[nH]1)C(=O)N[C@@H](C)C(=O)N(C)[C@H](Cc1ccccc1)C(=O)OCc1ccccc1 | 33.9% | > 10 | 
5 | COC(=O)C[C@H](O)[C@H](Cc1ccccc1)NC(=O)[C@H](CCC(N)=O)N(C)C(=O)OCc1ccccc1 | inactive |  | Not Active
6 | CC(C)C[C@H](NC(=O)C[C@H](O)[C@H](Cc1ccccc1)NC(=O)c1cccc(C(=O)N2CCCC2=O)c1)C(=O)N[C@@H](C)C(=O)N(C)[C@H](Cc1ccccc1)C(=O)OCc1ccccc1 | 28.4% | > 10 | 
7 | COC(=O)[C@@H](Cc1ccccc1)N(C)C(=O)[C@H](C)NC(=O)[C@H](CC(C)C)NC(=O)C[C@H](O)[C@H](Cc1ccccc1)NC(=O)[C@H](CCC(N)=O)N(C)C(=O)OCc1ccccc1 | 49.5% | > 10 | 
8 | CCCN(CCC)C(=O)c1cccc(C(=O)N[C@@H](Cc2ccccc2)[C@@H](O)CC(=O)N[C@@H](CC(C)C)C(=O)N[C@@H](C)C(=O)N(C)[C@H](Cc2ccccc2)C(=O)OCc2ccccc2)c1 | 89.4% | 1.01 | 
9 | CCCN(CCC)C(=O)c1cccc(C(=O)N[C@@H](Cc2ccccc2)[C@@H](O)CC(=O)N[C@@H](CC(C)C)C(=O)N[C@@H](C)C(=O)N(C)[C@H](Cc2ccccc2)C(=O)OCc2ccccc2)n1 | 28.7% | > 10 | 
10 | CCCN(CCC)C(=O)c1cccc(C(=O)N[C@@H](Cc2ccccc2)[C@@H](O)CC(=O)N[C@@H](CC(C)C)C(=O)N[C@@H](C)C(=O)N(C)[C@H](Cc2ccccc2)C(=O)O)n1 | 35% | > 10 | 
11 | CC(C)C[C@H](NC(=O)C[C@H](O)[C@H](Cc1ccccc1)NC(=O)[C@H](CCC(N)=O)N(C)C(=O)[C@@H](NC(=O)[C@H](C)O)C(C)C)C(=O)N[C@@H](C)C(=O)N(C)[C@H](Cc1ccccc1)C(=O)O (H-[Lac]V[NMeQ][Ahppa(3S,4S)]LA[dNMeF]-OH) |  | 0.078 | 
12 | CC(C)C[C@H](NC(=O)C[C@H](O)[C@H](Cc1ccccc1)NC(=O)c1cccc(C(=O)N2CCCC2=O)c1)C(=O)N[C@@H](C)C(=O)N(C)[C@H](Cc1ccccc1)C(=O)O | 35.1% | > 10 | 
13 | CCCN(CCC)C(=O)c1cccc(C(=O)N[C@@H](Cc2ccccc2)[C@@H](O)CC(=O)N[C@@H](CC(C)C)C(=O)N[C@@H](C)C(=O)N(C)[C@H](Cc2ccccc2)C(=O)O)c1 | 97.2% | 0.48 | 

Continued, in another order:

Row | inhibition (Beta-secretase 1 [1]) | IC50 (Beta-secretase 1 [2]; read-out: IC50) [µM] | SMILES | IC50 (Beta-secretase 1 [2])
14 | 90.6% | 2.61 | COC(=O)[C@H](C)NC(=O)[C@H](CC(C)C)NC(=O)C[C@H](O)[C@H](Cc1ccccc1)NC(=O)[C@H](CCC(N)=O)N(C)C(=O)[C@@H](NC(=O)OCc1ccccc1)C(C)C (Cbz-V[NMeQ][Ahppa(3S,4S)]LA-OMe) | 
15 | 25.8% | > 10 | COC(=O)[C@H](CC(C)C)NC(=O)C[C@H](O)[C@H](Cc1ccccc1)NC(=O)OC(C)(C)C | 
16 | 24.2% | > 10 | COC(=O)[C@H](CC(C)C)NC(=O)C[C@H](O)[C@H](Cc1ccccc1)NC(=O)[C@H](CCC(N)=O)N(C)C(=O)OCc1ccccc1 | 
17 | 17.5% | > 10 | COC(=O)[C@H](C)NC(=O)[C@H](CC(C)C)NC(=O)C[C@H](O)[C@H](Cc1ccccc1)NC(=O)[C@H](CCC(N)=O)N(C)C(=O)OCc1ccccc1 | 
18 | 11.6% | > 10 | COC(=O)[C@H](C)NC(=O)[C@H](CC(C)C)NC(=O)C[C@H](O)[C@H](Cc1ccccc1)NC(=O)OC(C)(C)C | 
19 | 41.7% | > 10 | CC(C)C[C@H](NC(=O)C[C@H](O)[C@H](Cc1ccccc1)NC(=O)OC(C)(C)C)C(=O)N[C@@H](C)C(=O)N(C)[C@H](Cc1ccccc1)C(=O)O | 
20 | 4.44% | > 10 | CC(C)C[C@H](NC(=O)C[C@H](O)[C@H](Cc1ccccc1)NC(=O)OC(C)(C)C)C(=O)N[C@@H](C)C(=O)N(C)[C@H](Cc1ccccc1)C(=O)OCc1ccccc1 | 

From ChEMBL document CHEMBL3400120, “Design, synthesis and biological evaluation of tasiamide B derivatives as BACE1 inhibitors” (Bioorg Med Chem, 2015)
